The source of these data is US20220023335A1, “COMPOSITION FOR PREVENTION AND/OR IMPROVEMENT OF ADVERSE DRUG REACTION, SYMPTOM ASSOCIATED WITH ADVERSE DRUG REACTION, AND/OR ADVERSE REACTION ASSOCIATED WITH MEDICAL TREATMENT” (MiZ Company Limited, priority 2020, published 2022).

The conditions of assay [1]: known; cited from earlier work.
The test system of assay [2] is adverse drug reactions of sleepiness and tiredness. The conditions noted are these: person, three days later.
Assay [3] deals with malaise and nausea after radiotherapy. The conditions noted are these: cancer patient after radiotherapy, hydrogen gas 3% to 4% by volume, approximately 120 mL/min.
Assay [4] concerns adverse drug reactions of malaise and rough skin. The note with it: person; hydrogen gas 4% to 5% by volume, approximately 200 mL/min, three to five hours per day, plus 500 mL per day of 7 ppm hydrogen water; three months.
The test system of assay [5] is adverse drug reactions of lost hair on the head and rough skin. The note with it: person, hydrogen gas 6.6% by volume, approximately 120 mL/min.
The subject of assay [6] is adverse reactions to hemodialysis (walking difficulty, edema). The conditions noted are these: person on hemodialysis, hydrogen approximately 5% in air, 200 mL/min, three to four hours per day. From the text:
A patient developed renal failure as a complication of diabetes mellitus and has been receiving hemodialysis since 2006.

Assay [7] concerns rhabdomyolysis caused by the antibacterial agent. The note with it: person, hydrogen gas 6.6% by volume, approximately 120 mL/min, 90 minutes per day for two weeks.
From the text: They lost strength in the body and was taken to hospital by ambulance. […] They were discharged from hospital one week later, but the tiredness persisted, and they had difficulty in putting strength into the limbs. […] Their condition improved to the extent that they could have a walk.
Assay [8] has as its system adverse drug reaction of persistent insomnia, malaise. The conditions noted are these: person. From the text: A patient with esophageal cancer experienced an adverse drug reaction of persistent insomnia due to treatment with anticancer agents, lost appetite because of malaise, and could not even go out. […] The inhalation time per day was two to three hours. […] When they drank too much alcohol, they used to have a severe hangover.

Take `[2H][2H]` [D2, deuterium]: the “superoxide eliminating effect compared with H2” value in assay [1] is given as “stronger”.

Turning to `[HH]` [hydrogen gas, molecular hydrogen], the “tiredness of the body after taking the drugs” value in assay [2] (cedar pollinosis, hydrogen gas 6.6% by volume, approximately 120 mL/min, 90 minutes to three hours per day, plus 7 ppm hydrogen water 500 mL to 1 L per day) is “reduced”. In assay [2] (hydrogen gas 6.6% by volume plus 7 ppm hydrogen water), the “sleepiness / clearness of the head” value is recorded as “they felt that the head was cleared”. In addition, the nausea result in assay [3] (90 minutes later) is “Nausea was gradually resolving”. In assay [3] (one hour after start of inhalation), the “malaise (body feeling)” value is reported as “they felt the body becoming light”. For the same molecule, in assay [4], the malaise entry is listed as “malaise subsided” and the skin condition result is “the skin started becoming lustrous”. The rough skin entry in assay [5] (sarcoma, anticancer agents and Opdivo, approximately one month later) is recorded as “the rough skin started improving”. Moreover, in assay [5] (inhalation continued for six months after anticancer treatment), the “hair on the head” value is recorded as “started growing”. In addition, in assay [6] (from 10 days after initiation), the walking difficulty entry is reported as “able to walk”. Moreover, the edema after dialysis entry in assay [6] (from one month after initiation) is listed as “edema was reduced”. Besides, in assay [7] (new quinolone antibacterial agent), the “strength in the limbs” value is reported as “became gradually able to put strength into the limbs”. Moreover, the tiredness result in assay [7] is listed as “reduced tiredness”. Besides, the “sleep (insomnia)” value in assay [8] (esophageal cancer, hydrogen gas 1.3% by volume, approximately 30 mL/min, two to three hours per day, following the second inhalation) is on record as “could sleep soundly”. For the same molecule, the “ability to go out / body feeling” value in assay [8] (hydrogen gas 1.3% by volume, approximately 30 mL/min, two to three hours per day) was “the patient was able to go out”. Moreover, the “hangover after too much alcohol” value in assay [8] (hydrogen inhaled before going to sleep) is reported as “a hangover started improving earlier than usual”.
